Like-named read-outs stand apart in the source and are kept apart here.
Assays:
[1] = tested on: fibrin- and LPS-induced microglia activation; assay: cells; assay type: cell-based, rat
[2] = tested on: primary rat microglia;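 on Fibrin % cell toxicity: share of dead cells sized under 150 µm2 at 10 µM in fibrin-stimulated microglia HTS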
[3] = tested on: LPS-induced microglia activation; assay: Image-based assay of LPS-induced microglia activation (HTS and dose response); assay type: cell-based, rat
[4] = tested on: fibrin-induced microglia activation; assay: Image-based assay of fibrin-induced microglia activation (HTS and dose response); assay type: cell-based, rat; conditions: for inhibition at 10 µM: Rattus norvegicus, Microglia, read-out: Fibrin % inhibition
[5] = tested on: primary rat microglia; remark: listed apart in the source;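 on Fibrin % cell toxicity: share of dead cells sized under 150 µm2 at 10 µM in fibrin-stimulated microglia HTS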
[6] = classification by fibrin and LPS inhibition in HTS
[7] = Rattus norvegicus, Microglia, 48 h; read-out: LPS % inhibition
[8] = primary microglia HTS, fibrin stimulation, cell size >800 μm2 as marker of activation
[9] = Rattus norvegicus, Microglia, 48 h, read-out: LPS % inhibition
[10] = primary microglia HTS, fibrin stimulation, compounds at 10 μM
[11] = Rattus norvegicus, Microglia, read-out: LPS % inhibition
[12] = classification by fibrin and LPS inhibition, HTS at 10 μM
[13] = Rattus norvegicus, Microglia, primary microglia HTS, LPS stimulation, compounds at 10 μM; read-out: LPS % inhibition
[14] = HTS of 1907 compounds, quadrant by fibrin and LPS inhibition
[15] = Rattus norvegicus, Microglia, primary microglia HTS, 10 μM, LPS-stimulated, cell size >800 μm^2 as marker of activation; read-out: LPS % inhibition
[16] = primary microglia HTS, 10 μM, fibrin-stimulated, cell size >800 μm^2 as marker of activation

CC(COc1ccccc1)N(CCCl)Cc1ccccc1 (stereo not shown) [Phenoxybenzamine]
Quadrant (FIG. 5b) [1, 6]: Q4 | Fibrin % cell toxicity ([2]; rat): 1% | inhibition at 10 µM [3, 7]: -5% | inhibition at 10 µM [4, 8]: 8% | LPS % cell toxicity ([5]; rat): 0%

CN(C)c1ccc(C(=C2C=CC(=[N+](C)C)C=C2)c2ccc(N(C)C)cc2)cc1 [Gentian Violet]
Quadrant (FIG. 5b) ([1]; quadrant by fibrin and LPS inhibition in HTS of 1907 compounds): Q2 | Fibrin % cell toxicity ([2]; rat): 38% | inhibition at 10 µM ([3]; Rattus norvegicus, Microglia, 48 h, primary microglia HTS, LPS stimulation; increased cell size (>800 μm^2) as marker of activation; read-out: LPS % inhibition): 118% | inhibition at 10 µM ([4]; primary microglia HTS, fibrin stimulation, increased cell size (>800 μm^2) as marker of activation): 117% | LPS % cell toxicity ([5]; rat): 73%

CC1CCC(NC(=O)N(CCCl)N=O)CC1 (stereo not shown) [Semustine]
Quadrant (FIG. 5b) [1, 6]: Q4 | Fibrin % cell toxicity ([2]; rat): 1% | inhibition at 10 µM [3, 7]: 18% | inhibition at 10 µM [4, 8]: -7% | LPS % cell toxicity ([5]; rat): 0%

CNC(=O)c1cc(Oc2ccc(NC(=O)Nc3ccc(Cl)c(C(F)(F)F)c3)cc2)ccn1 [Sorafenib]
Quadrant (FIG. 5b) [1, 6]: Q4 | Fibrin % cell toxicity ([2]; rat): 1% | inhibition at 10 µM [3, 7]: 35% | inhibition at 10 µM [4, 8]: -67% | LPS % cell toxicity ([5]; rat): 1%

CN(C)c1ccc2nc3ccc(=[N+](C)C)cc-3sc2c1 [Methylene Blue]
Quadrant (FIG. 5b) [1]: Q1 | Fibrin % cell toxicity ([2]; rat): 1% | inhibition at 10 µM [3, 9]: 73% | inhibition at 10 µM [4]: 25% | LPS % cell toxicity ([5]; rat): 1%

CCN(CC)CC#CCOC(=O)C(O)(c1ccccc1)C1CCCCC1 (stereo not shown) [Oxybutynin]
Quadrant (FIG. 5b) [1]: Q4 | Fibrin % cell toxicity ([2]; rat): 0% | inhibition at 10 µM [3, 9]: 0% | inhibition at 10 µM [4]: -9% | LPS % cell toxicity ([5]; rat): 1%

Cc1cc(C(C)(C)CC(C)(C)C)ccc1OCCOCC[N+](C)(C)Cc1ccccc1.[Cl-] [Methylbenzethonium Chloride]
Quadrant (FIG. 5b) ([1]; quadrant by fibrin and LPS inhibition, HTS at 10 μM): Q2 | Fibrin % cell toxicity [2]: 17% | LPS % inhibition ([3]; primary microglia HTS, LPS stimulation, compounds at 10 μM): 108% | Fibrin % inhibition [4, 10]: 105% | LPS % cell toxicity [5]: 10%

Fc1ccc([C@@H]2CCNC[C@H]2COc2ccc3c(c2)OCO3)cc1 [Paroxetine]
Quadrant (FIG. 5b) [1, 6]: Q4 | Fibrin % cell toxicity ([2]; rat): 1% | inhibition at 10 µM [3, 7]: 15% | inhibition at 10 µM [4, 8]: 38% | LPS % cell toxicity ([5]; rat): 0%

NC[C@@H]1CC[C@@H](N)[C@@H](O[C@H]2[C@H](O)[C@@H](O[C@H]3O[C@H](CO)[C@@H](O)[C@H](N)[C@H]3O)[C@H](N)C[C@@H]2N)O1 [Dibekacin]
Quadrant (FIG. 5b) [1]: Q4 | Fibrin % cell toxicity ([2]; rat): 1% | inhibition at 10 µM [3, 11]: 20% | inhibition at 10 µM [4]: 10% | LPS % cell toxicity ([5]; rat): 1%

CC[C@@H](CO)NCCN[C@@H](CC)CO [Ethambutol]
Quadrant (FIG. 5b) [1, 12]: Q4 | Fibrin % cell toxicity ([2]; rat): 1% | inhibition at 10 µM [3, 13]: 14% | inhibition at 10 µM [4, 10]: 12% | LPS % cell toxicity ([5]; rat): 1%

C#Cc1cccc(Nc2ncnc3cc(OCCOC)c(OCCOC)cc23)c1 [Erlotinib]
Quadrant (FIG. 5b) [1, 12]: Q4 | Fibrin % cell toxicity ([2]; rat): 1% | inhibition at 10 µM [3, 13]: -8% | inhibition at 10 µM [4, 10]: -52% | LPS % cell toxicity ([5]; rat): 0%

Sulfanilate Zinc
Quadrant (FIG. 5b) [1]: Q4 | Fibrin % cell toxicity [2]: 0% | LPS % inhibition ([3]; 10 µM): 15% | Fibrin % inhibition ([4]; 10 µM): −6% | LPS % cell toxicity [5]: 0%

O=c1n(Cl)c(=O)n(Cl)c(=O)n1Cl [Symclosene]
Quadrant (FIG. 5b) [1, 14]: Q4 | Fibrin % cell toxicity ([2]; rat): 0% | inhibition at 10 µM [3, 15]: 11% | inhibition at 10 µM [4, 16]: -13% | LPS % cell toxicity ([5]; rat): 0%

CN(C)CCCN1c2ccccc2Sc2ccc(Cl)cc21.Cl
Quadrant (FIG. 5b) [1]: Q4 | Fibrin % cell toxicity [2]: 2% | LPS % inhibition ([3]; 10 µM): 25% | Fibrin % inhibition ([4]; 10 µM): 9% | LPS % cell toxicity [5]: 1%

NC(=O)c1ccccc1O [Salicylamide]
Quadrant (FIG. 5b) [1, 6]: Q4 | Fibrin % cell toxicity ([2]; rat): 1% | inhibition at 10 µM [3, 7]: 16% | inhibition at 10 µM [4, 8]: -20% | LPS % cell toxicity ([5]; rat): 1%

CCN[C@H]1C[C@H](C)S(=O)(=O)c2sc(S(N)(=O)=O)cc21 [Dorzolamide]
Quadrant (FIG. 5b) [1]: Q4 | Fibrin % cell toxicity ([2]; rat): 1% | inhibition at 10 µM [3, 11]: 15% | inhibition at 10 µM [4]: -40% | LPS % cell toxicity ([5]; rat): 1%

COc1cc(C(=O)NS(=O)(=O)c2ccccc2C)ccc1Cc1cn(C)c2ccc(NC(=O)OC3CCCC3)cc12 [Zafirlukast]
Quadrant (FIG. 5b) [1, 14]: Q4 | Fibrin % cell toxicity ([2]; rat): 0% | inhibition at 10 µM [3, 15]: 3% | inhibition at 10 µM [4, 16]: -21% | LPS % cell toxicity ([5]; rat): 1%
